Here are results for one substance from patent US20060003907A1, “Detergent composition with benefit agents” (Unilever Home & Personal Care USA, Division of Conopco, Inc., priority 2003, published 2006).

A short description of data set [1]: Turbidity of 1% ACH solution at varying alkalinity (nephelometric turbidimeter). The class given is physicochemical. Conditions: 1% solution of ACH. The protocol: A 1% solution of ACH having initial pH of 4.6 was subjected to varying alkalinity by using sodium hydroxide solution, and the turbidity of the solution was measured at varying pH levels using a nephelometric turbidimeter.

Data set [2] in a line: pH and turbidity of 1% soap solution after adding ACH directly or through water-in-oil emulsion. The class given is physicochemical. Conditions: 60 mg ACH directly added to 1% soap solution (Control). The protocol:
A 1% soap solution was prepared by dissolving the soap in distilled water at 70° C., and then cooling the solution to ambient temperature. The formulation of the soap used is given below: […]
To ascertain the stability of the ACH incorporated in the dispersed phase such as the water-in-oil emulsion in accordance with the invention prepared under Example 2b, the soap solution obtained under Example 2a was used, and the effect of direct addition of ACH and the ACH in the water-in-oil emulsion (Example 2b) of the invention was studied.
For the purpose of the above study, two separate batches of the same soap solution of Example 2a was taken. In one batch 60 mg ACH was directly added, and in the other batch 100 mg ACH was added through the water-in-oil emulsion system as per Example 2b above. The pH levels and the turbidity of the respective solutions containing the active ACH directly introduced (Control) and the active ACH in the water-in-oil emulsion (Example 2b) were measured, and the results are reproduced hereunder in Table II.

With Aluminum Chlorohydrate [ACH], the Turbidity in data set [1] (pH 4.6 (initial pH)) is 1.3 NTU; in data set [1] (pH 5.7 (sodium hydroxide)), 2.6 NTU; in data set [1] (pH 7.5 (sodium hydroxide)), 504 NTU; in data set [1] (pH 9.6 (sodium hydroxide)), 522 NTU; in data set [1] (pH 10.6 (sodium hydroxide)), 884 NTU; in data set [2] (soap solution alone 205) it was 950. For the same substance, the pH in data set [2] (soap solution alone 10.14) is listed as 9.89.
